We go through two compounds from patent US20140135220A1, “Methods for post emergent weed control with Pyroxasulfone and Lactofen” (Valent U.S.A., Corporation, priority 2012, published 2014).

Series [1] relates to Palmer Amaranth. The series can be described thus: Example 2: post emergence treatments on soybean plots, control of Palmer Amaranth. The series is classed as in vivo. Also noted: scale not given here. The text has this: (§1) In order to determine the efficacy of combinations of pyroxasulfone and lactofen, numerous treatments were applied to plots in an area with abundant Palmer Amaranth and Ivyleaf Morning Glory growth. Soybeans were planted approximately 22 days before treatment. Treatments were applied with a backpack sprayer with a size 6 nozzle at a pace of 3 miles per hour during dry conditions. Each treatment was done in triplicate. Treatments were applied with a water volume of 20 gallons per acre applied at 40 PSI with a ground speed of 3 MPH. At the time of treatment, Palmer Amaranth plants were approximately 2 to 6 inches tall, and Ivyleaf Morning Glory was approximately 3 to 6 inches tall. Effect of Pyroxasulfone and Lactofen Treatments on Palmer Amaranth” and “Table 3. Effect of Pyroxasulfone and Lactofen Treatments on Ivyleaf Morning Glory.”

The test system of series [2] is Palmer Amaranth. The series can be described thus: Example 1: post emergence treatments on field plots with Palmer Amaranth. Type of series: in vivo. The conditions noted are these: COC 1% v/v. An excerpt:
In order to determine the efficacy of combinations of pyroxasulfone and lactofen, numerous treatments were applied to plots in an area with abundant Palmer Amaranth growth. Treatments were applied to Palmer that were between 1 and 2 inches tall with a water volume of 20 gallons per acre applied at 35 PSI with a ground speed of 3 MPH. Treatments were repeated 10 days after the first application on another set of plots with Palmer 3 to 12 inches tall with a water volume of 20 gallons per acre applied at 35 PSI with a ground speed of 3 MPH.
The number of living Palmer Amaranth plants was evaluated at 7, 18, 24, and 38 days following the first treatment and 8, 14, and 28 days following the second treatment. Effect of Pyroxasulfone and Lactofen Treatments on Palmer Amaranth.”

Another series concerns Soybeans. The series can be described thus: Example 2: phytotoxicity of the treatments on soybeans. Particulars: soybean, in vivo, 28 days after treatment.
From the text: as §1
Applicants also evaluated the phototoxicity of the treatments on soybeans. […] Effect of Pyroxasulfone and Lactofen Treatments on Soybeans,” there were no phytotoxic effects 28 days following treatments.

Another series has as its system Ivyleaf Morning Glory. Put plainly: Example 2: post emergence treatments on soybean plots, control of Ivyleaf Morning Glory. Type of series: in vivo. Also noted: scale not given here.
From the text: as §1

In the next series the test system is weeds. The conditions noted are these: as a post emergence treatment, applied alone; previous studies; cited from earlier work.
The mark [3] stands for this setting: plot 2, Pyroxasulfone 0.213 lb ai/a.

Turning to `CCOC(=O)C(C)OC(=O)c1cc(Oc2ccc(C(F)(F)F)cc2Cl)ccc1[N+](=O)[O-]` (racemic) [Lactofen, ethyl O-[5-(2-chloro-α,α,α-trifluoro-p-tolyloxy)-2-nitrobenzoyl]-DL-lactate], in the series on Palmer Amaranth [1] (plot 8, Lactofen 8 fl oz/a), the “Effect on Palmer Amaranth 6 DAT” value is recorded as 86.7, the “Effect on Palmer Amaranth 14 DAT” value came to 65.0 and the “Effect on Palmer Amaranth 28 DAT” value is given as 46.7. In the series on Palmer Amaranth [1] (plot 9, Lactofen 10.0 fl oz/a), the “Effect on Palmer Amaranth 6 DAT” value is listed as 84.7, the “Effect on Palmer Amaranth 14 DAT” value was 68.3 and the “Effect on Palmer Amaranth 28 DAT” value is reported as 46.7. For the same compound, in the series on Palmer Amaranth [1] (plot 10, Lactofen 12.5 fl oz/a), the “Effect on Palmer Amaranth 6 DAT” value is recorded as 85.0, the “Effect on Palmer Amaranth 14 DAT” value was found to be 71.7 and the “Effect on Palmer Amaranth 28 DAT” value amounted to 43.3. In the series on Palmer Amaranth [2] (plot 3, Lactofen 12.5 fl oz/a), the “Palmer Amaranth (% Control) 7 DAT” value is listed as 66.0%, the “Palmer Amaranth (% Control) 8/18 DAT” value was found to be 97.7%, the “Palmer Amaranth (% Control) 14/24 DAT” value was 97.7% and the “Palmer Amaranth (% Control) 28/38 DAT” value came out at 99.0%. In addition, the “Effect on Soybeans (phytotoxicity) 28 DAT” value in the series on Soybeans came to 0.0. For the same compound, in the series with Ivyleaf Morning Glory (plot 8, Lactofen 8 fl oz/a), the “Effect on Ivyleaf Morning Glory 6 DAT” value came out at 61.7, the “Effect on Ivyleaf Morning Glory 14 DAT” value is on record as 48.3 and the “Effect on Ivyleaf Morning Glory 28 DAT” value is 20.0. In addition, in the series on Ivyleaf Morning Glory (plot 9, Lactofen 10.0 fl oz/a), the “Effect on Ivyleaf Morning Glory 6 DAT” value was found to be 71.7, the “Effect on Ivyleaf Morning Glory 14 DAT” value is 58.3 and the “Effect on Ivyleaf Morning Glory 28 DAT” value was 20.0. Moreover, in the series with Ivyleaf Morning Glory (plot 10, Lactofen 12.5 fl oz/a), the “Effect on Ivyleaf Morning Glory 6 DAT” value was 68.3, the “Effect on Ivyleaf Morning Glory 14 DAT” value came to 56.7 and the “Effect on Ivyleaf Morning Glory 28 DAT” value is 23.3.
Turning to `Cn1nc(C(F)(F)F)c(CS(=O)(=O)C2=NOC(C)(C)C2)c1OC(F)F` [Pyroxasulfone, 5-(difluoromethoxy)-1-methyl-3-(trifluoromethyl)pyrazol-4-ylmethyl 4,5-dihydro-5,5-dimethyl-1,2-oxazol-3-yl sulfone], the post emergence activity result in the series with weeds is on record as “poor activity”. In the series on Palmer Amaranth [2] (setting [3]), the “Palmer Amaranth (% Control) 7 DAT” value came to 66.9%, the “Palmer Amaranth (% Control) 8/18 DAT” value came to 85.0%, the “Palmer Amaranth (% Control) 14/24 DAT” value came out at 45.0% and the “Palmer Amaranth (% Control) 28/38 DAT” value came to 61.7%.
